Assay results from US20110098296A1, “Thiazole And Oxazole Kinase Inhibitors” (priority 2007, published 2011).
Counter-ions that a name gives are not always drawn.

Columns and labels:
[1] = test system: A375P F11s tumor cells; test: Method C: Cell Growth Inhibition Assay (CellTiter-Glo), A375P F11s; assay type: cell-based; conditions: Homo sapiens, 72 h, 3 days, 4-parameter fit
Method: (§1) Human breast tumor cells (BT474) were cultured in RPMI (Mediatech 50-011-PB), containing 10% FBS (JRH Biosciences 12176) and 1% penicillin-streptomycin (Invitrogen 15140). Human head and neck tumor cells (HN5) were cultured in high glucose DMEM (Mediatech 50-013-PB) containing 10% FBS and 1% penicillin-streptomycin. Human colon tumor cells (Colo205) were cultured in RPMI (Mediatech 50-020-PB) containing 10% FBS and 1% penicillin-streptomycin. Human melanoma cancer cells (SK-MEL-28) were cultured in EMEM with nonessential amino acids (Mediatech 50-011-PB) containing 10% FBS, 1% sodium pyruvate (JT Baker 3354-04), and 1% penicillin-streptomycin. Human melanoma cancer cells (A375P F11s) were cultured in RPMI (Mediatech 50-020-PB) containing 10% FBS, 1% sodium pyruvate, and 1% penicillin-streptomycin. Human colon cancer cells (HT-29) were cultured in high glucose DMEM (Mediatech 50-013-PB) containing 10% FBS and 1% penicillin-streptomycin. Human melanoma cancer cells (SK-MEL-3) were cultured in McCoy's 5A (50-025-PB) containing 15% FBS, and 1% penicillin-streptomycin. All cell lines were maintained at 37° C. in a humidified 5% CO2, 95% air incubator. Cells were harvested using trypsin/EDTA (Invitrogen 25200), counted using an haemocytometer, and plated. For 96-well assays (using white full-area NUNC plates cat. #136102), cells were plated in 105 μL at the following densities (cells/well): HN5, 500; Colo205, 500; SK-MEL-28, 500; A375P-F11s, 500; HT-29, 500; SK-MEL-3, 500; and BT474, 3000. For 384-well assays (white full-area NUNC plates, cat. #781080), cells were plated in 48 μL at the following densities (cells/well): HN5, 500; Colo205, 500; SK-MEL-28, 500; A375P-F11s, 500; HT29, 500; SK-MEL-3, 500; and BT474, 2000.
(§2) The next day, compounds were diluted as follow: For 96-well assays, 13.5 μL of compound in DMSO were diluted using nine (9) serial 1:3 dilutions of 4.5 μL in 9 μL of DMSO. Medium (270 μl/well of RPMI with 10% FBS and 1% penicillin-streptomycin) was added to the plates. Aliquots (7 μl) were added to cells in the final assay giving a final DMSO concentration of 0.2%. For 384-well assays, 15 μL of compound in DMSO were diluted using nine (9) serial 1:3 dilutions of 5 μL in 10 μL of DMSO, followed by a further dilution of 5 μL of compound with 95 μL of medium, of which 2 μL were added to cells in the final assay giving a final DMSO concentration of 0.2%. Cells were incubated at 37° C., 5% CO2 for 3 days.
(§3) Total ATP was measured (as a surrogate estimate of cell number) using CellTiter-Glo® reagent (Promega G7571). Briefly, plates were removed from the incubator and allowed to equilibrate to room temperature for 30 minutes. CellTiter-Glo® (25 μL or 55 μL for 384-well or 96-well assays, respectively) reagent was added to each well and plates were shaken on an orbital plate shaker for 2 mins. Plates were incubated without shaking for a further 30 mins and read on an LJL Analyst GT reader in luminometer mode with an integration time of 0.5 seconds per well. Percent inhibition of cell growth was calculated relative to DMSO vehicle-treated control wells. Concentration of compound required to give 50% inhibition of vehicle-treated control cell growth (IC50) was interpolated using a 4-parameter fit for determining IC50 using the following equation: Y=A+((B−A)/(1+((C/X)̂D))) where X=IC50.

[2] = biological target: T1, ErbB2 (Homo sapiens, UniProt P04626); test: ErbB-2 substrate phosphorylation assay (HTRF); assay type: biochemical; conditions: Method (A): Enzyme Mix incubated with compound at 20° C. for 1 hr, reaction started by adding Substrate Mix
T1 construct: made in house; host or cells: baculovirus expression system
Procedure, shortened: (§4)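 Baculovirus-expressed kinase (0.8 nM EGFR or 10 nM ErbB2 in enzyme mix) with Peptide C 0.8 μM and ATP 20 μM (substrate-mix levels), MOPS pH 7.5, MnCl2; 90 min, 20 °C, HTRF anti-phosphotyrosine. Method A adds 1 h enzyme–compound preincubation; B none. pIC50, final compound 0.00027–47.6 μM.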

[3] = test system: BT474 tumor cells; test: Method C: Cell Growth Inhibition Assay (CellTiter-Glo), BT474; assay type: cell-based; conditions: Homo sapiens, BT-474, 72 h, 3 days, 4-parameter fit
[4] = test system: HT-29 tumor cells; test: Method C: Cell Growth Inhibition Assay (CellTiter-Glo), HT-29; assay type: cell-based; conditions: Homo sapiens, HT-29, 72 h, 3 days, 4-parameter fit
Method: as §1, §2, §3

[5] = test system: SK-MEL-28 tumor cells; test: Method C: Cell Growth Inhibition Assay (CellTiter-Glo), SK-MEL-28; assay type: cell-based; conditions: Homo sapiens, SK-MEL-28, 72 h, 3 days, 4-parameter fit
Procedure, shortened: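 HT-29 and HN5 were grown in high-glucose DMEM with 10% FBS, SK-MEL-28 in EMEM with nonessential amino acids, sodium pyruvate and 10% FBS, and A375P F11s in RPMI with 10% FBS and sodium pyruvate. Cells (500/well) received 1:3 compound dilutions for 3 days, with CellTiter-Glo readout and 4-parameter IC50.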

[6] = test system: Colo205 tumor cells; test: Method C: Cell Growth Inhibition Assay (CellTiter-Glo), Colo205; assay type: cell-based; conditions: Homo sapiens, COLO 205, 72 h, 3 days, 4-parameter fit
Procedure, shortened: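 Cells plated at 500 cells/well, dosed next day with 10-point 1:3 dilution series (0.2% final DMSO) and grown 3 days at 37 °C, 5% CO2. CellTiter-Glo luminescence (total ATP) served as cell-number surrogate; inhibition relative to DMSO controls, IC50 interpolated by 4-parameter fit.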

[7] = test system: SK-MEL-3 tumor cells; test: Method C: Cell Growth Inhibition Assay (CellTiter-Glo), SK-MEL-3; assay type: cell-based; conditions: Homo sapiens, SK-MEL3, 72 h, 3 days, 4-parameter fit
Method: as §1, §2, §3

[8] = biological target: T2, EGFR (Homo sapiens, UniProt P00533); test: EGFR substrate phosphorylation assay (HTRF); assay type: biochemical; conditions: Method (A): Enzyme Mix incubated with compound at 20° C. for 1 hr, reaction started by adding Substrate Mix
T2 construct: made in house; host or cells: baculovirus expression system
Procedure, shortened: as §4

[9] = test system: HN5 tumor cells; test: Method C: Cell Growth Inhibition Assay (CellTiter-Glo), HN5; assay type: cell-based; conditions: Homo sapiens, 72 h, 3 days, 4-parameter fit
Method: as §1, §2, §3

T1 sequence (P04626 23-1255): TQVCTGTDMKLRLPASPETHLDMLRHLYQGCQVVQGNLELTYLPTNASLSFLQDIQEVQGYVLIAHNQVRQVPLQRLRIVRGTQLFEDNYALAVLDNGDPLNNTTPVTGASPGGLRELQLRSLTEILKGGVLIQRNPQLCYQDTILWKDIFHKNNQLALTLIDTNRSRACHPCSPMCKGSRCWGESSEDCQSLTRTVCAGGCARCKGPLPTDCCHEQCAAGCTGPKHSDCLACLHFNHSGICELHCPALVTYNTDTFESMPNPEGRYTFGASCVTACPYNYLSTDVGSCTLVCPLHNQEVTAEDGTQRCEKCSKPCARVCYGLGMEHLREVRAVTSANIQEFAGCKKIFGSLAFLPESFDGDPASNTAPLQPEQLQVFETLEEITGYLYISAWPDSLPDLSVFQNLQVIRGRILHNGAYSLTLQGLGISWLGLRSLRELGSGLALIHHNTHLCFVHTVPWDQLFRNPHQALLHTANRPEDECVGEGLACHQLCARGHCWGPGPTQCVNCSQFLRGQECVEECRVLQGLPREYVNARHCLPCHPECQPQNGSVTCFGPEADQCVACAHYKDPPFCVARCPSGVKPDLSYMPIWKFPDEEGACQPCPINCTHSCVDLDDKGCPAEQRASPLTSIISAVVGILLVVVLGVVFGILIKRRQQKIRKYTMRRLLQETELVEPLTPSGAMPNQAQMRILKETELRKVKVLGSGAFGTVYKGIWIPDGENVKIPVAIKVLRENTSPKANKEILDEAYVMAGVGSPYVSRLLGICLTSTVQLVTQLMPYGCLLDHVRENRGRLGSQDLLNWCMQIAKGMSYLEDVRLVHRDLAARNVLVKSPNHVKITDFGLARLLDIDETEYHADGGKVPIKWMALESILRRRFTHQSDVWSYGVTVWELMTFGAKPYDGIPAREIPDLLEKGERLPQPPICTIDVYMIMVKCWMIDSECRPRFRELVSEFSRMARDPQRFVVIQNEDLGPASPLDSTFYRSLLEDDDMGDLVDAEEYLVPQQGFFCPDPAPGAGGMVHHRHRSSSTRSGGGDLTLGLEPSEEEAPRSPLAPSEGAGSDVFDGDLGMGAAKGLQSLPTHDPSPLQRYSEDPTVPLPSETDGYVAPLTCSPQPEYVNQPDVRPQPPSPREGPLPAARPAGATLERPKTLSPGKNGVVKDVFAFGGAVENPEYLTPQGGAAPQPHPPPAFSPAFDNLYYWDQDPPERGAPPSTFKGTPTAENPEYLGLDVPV
T2 sequence (P00533 25-1210): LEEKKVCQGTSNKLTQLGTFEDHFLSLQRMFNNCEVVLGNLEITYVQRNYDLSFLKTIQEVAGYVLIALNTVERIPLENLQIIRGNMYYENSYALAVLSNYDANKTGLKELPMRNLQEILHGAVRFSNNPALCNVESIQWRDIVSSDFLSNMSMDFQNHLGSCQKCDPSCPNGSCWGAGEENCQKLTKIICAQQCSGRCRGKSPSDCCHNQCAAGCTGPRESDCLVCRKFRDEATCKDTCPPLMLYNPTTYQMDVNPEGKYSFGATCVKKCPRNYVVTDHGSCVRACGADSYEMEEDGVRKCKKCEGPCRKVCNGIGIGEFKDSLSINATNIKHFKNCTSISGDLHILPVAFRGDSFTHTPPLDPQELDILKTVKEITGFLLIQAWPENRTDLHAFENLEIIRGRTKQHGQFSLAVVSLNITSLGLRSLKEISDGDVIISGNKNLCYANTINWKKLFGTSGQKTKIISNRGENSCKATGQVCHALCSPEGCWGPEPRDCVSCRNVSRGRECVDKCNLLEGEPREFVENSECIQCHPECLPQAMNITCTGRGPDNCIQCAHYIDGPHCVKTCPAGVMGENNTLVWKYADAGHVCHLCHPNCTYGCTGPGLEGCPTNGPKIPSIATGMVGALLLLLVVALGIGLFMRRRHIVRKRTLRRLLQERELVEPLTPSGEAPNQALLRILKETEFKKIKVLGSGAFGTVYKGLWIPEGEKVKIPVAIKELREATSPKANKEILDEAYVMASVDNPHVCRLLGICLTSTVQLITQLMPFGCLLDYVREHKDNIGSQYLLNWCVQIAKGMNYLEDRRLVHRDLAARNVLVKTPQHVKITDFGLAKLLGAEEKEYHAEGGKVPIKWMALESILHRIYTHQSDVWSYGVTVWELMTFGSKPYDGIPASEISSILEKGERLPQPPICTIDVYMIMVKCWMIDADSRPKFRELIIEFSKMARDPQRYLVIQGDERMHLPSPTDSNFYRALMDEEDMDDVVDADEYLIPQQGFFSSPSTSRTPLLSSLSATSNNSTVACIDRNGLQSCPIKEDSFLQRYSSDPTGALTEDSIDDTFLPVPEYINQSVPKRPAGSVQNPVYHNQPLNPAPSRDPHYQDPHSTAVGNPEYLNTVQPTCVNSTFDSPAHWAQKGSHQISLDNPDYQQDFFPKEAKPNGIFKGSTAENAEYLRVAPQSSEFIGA

Row | SMILES | IC50 [1] [nM] | IC50 [2] [nM] | IC50 [3] [nM] | IC50 [4] [nM] | IC50 [5] [nM] | IC50 [6] [nM] | IC50 [7] [nM] | IC50 [8] [nM] | IC50 [9] [nM]
1 | COc1ccc(Nc2nccc(-c3sc(NC4CC4)nc3-c3cccc(NC(=O)c4c(F)cccc4F)c3)n2)cc1OCCN(C)C [Example 32, N-{3-[2-(cyclopropylamino)-5-(2-{[3-{[2-(dimethylamino)ethyl]oxy}-4-(methyloxy)phenyl]amino}-4-pyrimidinyl)-1,3-thiazol-4-yl]phenyl}-2,6-difluorobenzamide] | 100 to 1000 | < 100 | 100 to 1000 | 100 to 1000 | 100 to 1000 | 100 to 1000 | 100 to 1000 | < 100 | < 100
2 | O=C(Nc1cccc(-c2nc(NC3CC3)sc2-c2ccnc(Nc3ccc(OCCN4CCCC4)c(F)c3)n2)c1)c1c(F)cccc1F [Example 33, N-[3-(2-(Cyclopropylamino)-5-{2-[(3-fluoro-4-{[2-(1-pyrrolidinyl)ethyl]oxy}phenyl)amino]-4-pyrimidinyl}-1,3-thiazol-4-yl)phenyl]-2,6-difluorobenzamide] | 100 to 1000 | < 100 | < 100 | 100 to 1000 | 100 to 1000 | 100 to 1000 | 100 to 1000 | < 100 | 100 to 1000
3 | CC(=O)Nc1nc(-c2cccc(NC(=O)c3c(F)cccc3F)c2)c(-c2ccnc(Nc3cccc(CN4CCCC4)c3)n2)s1 [Example 34, N-{3-[2-(Acetylamino)-5-(2-{[3-(1-pyrrolidinylmethyl)phenyl]amino}-4-pyrimidinyl)-1,3-thiazol-4-yl]phenyl}-2,6-difluorobenzamide] | 100 to 1000 | < 100 | < 100 | 100 to 1000 | 100 to 1000 | 100 to 1000 | 100 to 1000 | < 100 | < 100
4 | CN(C)CCOc1ccc(Nc2nccc(-c3sc(N(C)C)nc3-c3cccc(NC(=O)c4c(F)cccc4F)c3)n2)cc1 [Example 36, N-[3-(2-(Dimethylamino)-5-{2-[(4-{[2-(dimethylamino)ethyl]oxy}phenyl)amino]-4-pyrimidinyl}-1,3-thiazol-4-yl)phenyl]-2,6-difluorobenzamide] | > 1000 | < 100 | < 100 | 100 to 1000 | > 1000 | 100 to 1000 | > 1000 | < 100 | < 100
5 | CN(C)CCOc1ccc(Nc2nccc(-c3sc(N(C)C)nc3-c3cccc(NC(=O)c4c(F)cccc4F)c3)n2)cc1Cl [Example 37, N-{3-[5-{2-[(3-Chloro-4-{[2-(dimethylamino)ethyl]oxy}phenyl)amino]-4-pyrimidinyl}-2-(dimethylamino)-1,3-thiazol-4-yl]phenyl}-2,6-difluorobenzamide] | 100 to 1000 | < 100 | 100 to 1000 | 100 to 1000 | 100 to 1000 | 100 to 1000 | > 1000 | < 100 | 100 to 1000
6 | CN1CCc2ccc(Nc3nccc(-c4sc(N(C)C)nc4-c4cccc(NC(=O)c5c(F)cccc5F)c4)n3)cc2C1 [Example 38] | 100 to 1000 | < 100 | 100 to 1000 | 100 to 1000 | 100 to 1000 | 100 to 1000 | 100 to 1000 | < 100 | < 100

Other lines, results leading:

Row | IC50 [1] [nM] | IC50 [2] [nM] | IC50 [3] [nM] | IC50 [4] [nM] | IC50 [5] [nM] | IC50 [6] [nM] | IC50 [7] [nM] | IC50 [8] [nM] | IC50 [9] [nM] | SMILES
7 | 100 to 1000 | < 100 | < 100 | 100 to 1000 | 100 to 1000 | 100 to 1000 | 100 to 1000 | < 100 | < 100 | CNc1nc(-c2cccc(NC(=O)c3c(F)cccc3F)c2)c(-c2ccnc(Nc3ccc(OCCN(C)C)c(Cl)c3)n2)s1 [Example 24, N-{3-[5-{2-[(3-Chloro-4-{[2-(dimethylamino)ethyl]oxy}phenyl)amino]-4-pyrimidinyl}-2-(methylamino)-1,3-thiazol-4-yl]phenyl}-2,6-difluorobenzamide]
8 | 100 to 1000 | < 100 | 100 to 1000 | 100 to 1000 | 100 to 1000 | 100 to 1000 | 100 to 1000 | < 100 | 100 to 1000 | CCNc1nc(-c2cccc(NC(=O)c3c(F)cccc3F)c2)c(-c2ccnc(Nc3ccc(OCCN(C)C)c(Cl)c3)n2)s1 [Example 25]
9 | 100 to 1000 | < 100 | 100 to 1000 | 100 to 1000 | 100 to 1000 | 100 to 1000 | 100 to 1000 | < 100 | 100 to 1000 | CCNc1nc(-c2cccc(NC(=O)c3c(F)cccc3F)c2)c(-c2ccnc(Nc3ccc(CCN4CCCC4)c(F)c3)n2)s1 [Example 26, N-(3-{2-(Ethylamino)-5-[2-({3-fluoro-4-[2-(1-pyrrolidinyl)ethyl]phenyl}amino)-4-pyrimidinyl]-1,3-thiazol-4-yl}phenyl)-2,6-difluorobenzamide trifluoroacetate]
10 | 100 to 1000 | < 100 | < 100 | 100 to 1000 | 100 to 1000 | 100 to 1000 | 100 to 1000 | < 100 | < 100 | COCCNc1nc(-c2cccc(NC(=O)c3c(F)cccc3F)c2)c(-c2ccnc(Nc3ccc(OCCN4CCCC4)c(Cl)c3)n2)s1 [Example 27, N-[3-(5-{2-[(3-Chloro-4-{[2-(1-pyrrolidinyl)ethyl]oxy}phenyl)amino]-4-pyrimidinyl}-2-{[2-(methyloxy)ethyl]amino}-1,3-thiazol-4-yl)phenyl]-2,6-difluorobenzamide]
11 | 100 to 1000 | < 100 | < 100 | 100 to 1000 | 100 to 1000 | 100 to 1000 | 100 to 1000 | < 100 | 100 to 1000 | O=C(Nc1cccc(-c2nc(NCCCN3CCOCC3)sc2-c2ccnc(Nc3cccc(CN4CCCC4)c3)n2)c1)c1c(F)cccc1F [Example 28, 2,6-Difluoro-N-{3-[2-{[3-(4-morpholinyl)propyl]amino}-5-(2-{[3-(1-pyrrolidinylmethyl)phenyl]amino}-4-pyrimidinyl)-1,3-thiazol-4-yl]phenyl}benzamide]
12 | 100 to 1000 | < 100 | 100 to 1000 | 100 to 1000 | > 1000 | 100 to 1000 | 100 to 1000 | < 100 | < 100 | CN1CCc2ccc(Nc3nccc(-c4sc(NCCCN5CCOCC5)nc4-c4cccc(NC(=O)c5c(F)cccc5F)c4)n3)cc2C1 [Example 31]
